From patent publication US5744453A, “Polyamine conjugates for treatment of infection” (priority 1996, dated 1998) come the findings set out here.

SMILES strings stand for the structures. Converted amounts (≈) assume the structure as drawn. Where two headings read alike, the source gives them in different places.

For data set [1], the system named is Enterococcus faecalis 29212. The data set can be described thus: Determination of MIC against bacteria (Table 1), E. faecalis 29212. It counts as cell-based. As to conditions: read-out: minimum inhibitory concentration (MIC), E. faecalis 29212. As to the method: (§1) Antibiotic indicator strains Escherichia coli strain 25922, Enterococcus faecalis 29212, Pseudomonas aeruginosa 27853, and Staphylococcus aureus 29213 are obtained from the American Type Tissue Culture Collection (ATCC) in Rockville, Md. The cystic fibrosis isolate, Pseudomonas aeruginosa 39324, is also obtained from ATCC. Bacteria are routinely cultivated in cation-supplemented Mueller-Hinton broth (CAMHB) or agar at 37° C.
(§2) The minimum inhibitory concentration (MIC) of glycosylated and non-glycosylated steroidal polyamines for antibiotic indicator strains is determined by dissolving the test compounds in deionized water to a final concentration of 1 mg per mL. […] These solutions are sterilized by filtration through 0.22 micron syringe filters.
(§3) Stock solutions of individual compounds are serially diluted (two-fold) in sterile CAMHB in 96-well tissue culture dishes (Falcon) and inoculated with antibiotic indicator strains that are prepared as described below.
(§4) Antibiotic indicator strains are grown in 5 mL of CAMHB for 3-4 h at 37° C. with shaking (200 rpm) on a New Brunswick rotary shaker. Bacteria are adjusted to a turbidity that matched a 0.5 McFarland standard (ca. 10^8 CFU per mL) in sterile 0.85% saline. These bacterial suspensions are diluted 1:20 in sterile 0.85% saline and 10 μL (ca. […]) of each suspension is used to inoculate individual wells of a 96 well plate that contained different concentrations of the test compounds. Following inoculation, the plates are sealed with plastic tape, incubated for 24 h at 37° C. and visually inspected for bacterial growth. CAMHB inoculated with each of the antibiotic test strains and uninoculated CAMBH plus each of the test compounds served as positive and negative controls.

A short description of data set [2]: Solubility in water. It counts as physicochemical. As to conditions: trifluoroacetate salt. As to the method: (§5) To a solution of spermine (0.8 g, 2 mmol) and triethylamine (0.3 mL) in 5 mL of DMF is added dropwise the N-oxysuccinimidechenodeoxycholate (1.0 g, 2 mmol) in 5 mL of DMF. The mixture is stirred overnight at room temperature, then poured into DCM (100 mL). The precipitate of the hydroxysuccinimide is filtered, and the filtrate is evaporated to give a liquid phase, which is poured into water (100 mL). The precipitate of the product is obtained. It is dissolved in MeOH (5 mL) and passed through a CHP-20 reverse-phase column. A […] in water solvent system is used to elute the product. The solvent is removed by evaporation, and the residue is dissolved in 1 mL of trifluoroacetic acid. The resulting solution is diluted up to 10 mL with water, filtered, and the filtrate subsequently lyophilized to afford 0.9 g (50% yield) of a solid (m.p. 96°-100° C.). […] A 5% solution of the trifluoroacetate salt of the chenodeoxycholic acid-spermine conjugate is stable at room temperature over about 12-24 h, after which a precipitate of the base separates as a slurry. TLC (MeOH:i-PrNH2 :DCM 1:1:2) Rf 0.7. IR (KBr): 3406, 2939, 2869, 1778 (COOH), 1680 (CONH--), 1553, 1458, 1196, 834, 722 cm^-1. ^1 H NMR (D2 O): δ3.75 (s, 1H), 3.4 (s, 1H), 2.8-3.15 (m, 12H), 2.2-1.2 (m, 39H), 0.9 (d, 3H), 0.86 (s, 3H), 0.55 (s, 3H). Fab MS: (M+Na^+)=598. Anal. Calc. for C34 H64 N4 O3.3CF3 COOH: C 52.5; H 7.29; N 6.09. […]

Data set [3] concerns Pseudomonas aeruginosa 27853. The data set can be described thus: Determination of MIC against bacteria (Table 1), P. aeruginosa 27853. The note with it: read-out: minimum inhibitory concentration (MIC), P. aeruginosa 27853. It counts as cell-based. As to the method: as §1, §2, §3, §4
Data set [4] concerns Staphylococcus aureus 29213. The data set is described as follows: Determination of MIC against bacteria (Table 1), S. aureus 29213. As to conditions: read-out: minimum inhibitory concentration (MIC), S. aureus 29213. It counts as cell-based. As for the experimental part:
as §1, §2, §3, §4

Data set [5] is described as follows: Stability of a 5% solution of the trifluoroacetate salt at room temperature. It counts as physicochemical. As for the experimental part:
as §5

In data set [6] the test system is Escherichia coli strain 25922. The data set can be described thus: Determination of MIC against bacteria (Table 1), E. coli 25922. It counts as cell-based. The note with it: read-out: minimum inhibitory concentration (MIC), E. coli 25922. As to the method: as §1, §2, §3, §4
In data set [7] the test system is Pseudomonas aeruginosa 39324. The data set is described as follows: Determination of MIC against bacteria (Table 1), P. aeruginosa 39324 (cystic fibrosis isolate). As to conditions: read-out: minimum inhibitory concentration (MIC), P. aeruginosa 39324. It counts as cell-based. As to the method: as §1, §2, §3, §4
Data set [8] relates to P. aeruginosa 39324. The data set can be described thus: Augmentation assay: MIC of erythromycin (Table 2), P. aeruginosa 39324. It counts as cell-based. The note with it: Pseudomonas aeruginosa, 39324, 24 h, read-out: MIC of erythromycin, P. aeruginosa 39324. As to the method: (§6) Stock solutions 1-2 mg/mL of test compounds are prepared in distilled water, filter-sterilized through a […] filter and diluted in CAMHB to the desired starting concentration. Aliquots of each test compound (0.1 mL), at 2× the final concentration, are added to the first rows of 96 well plates. The remaining wells of these plates are charged with 0.1 mL aliquots of each test compound at the desired final concentration. Subsequently, 0.1 mL of solutions of erythromycin, gentamicin, or vancomycin, prepared in CAMHB, are added to the first rows of these plates and serially diluted.
(§7) The wells are inoculated in duplicate with each of four antibiotic indicator strains prepared as described previously above. The final concentrations of antibiotics tested in these experiments range from 0.185-250 μg per mL. Plates containing each of the antibiotics serially diluted in CAMHB alone are also inoculated with antibiotic indicator strains to determine the MIC of erythromycin, gentamicin and vancomycin in the absence of the compounds of the invention. The plates are sealed with plastic tape, incubated in for 24 h at 37° C., visually inspected for bacterial growth. The MIC of erythromycin, gentamicin and vancomycin for each of the indicator strains in the presence or absence of test compound is subsequently determined.

Data set [9] relates to P. aeruginosa 27853. The data set is described as follows: Augmentation assay: MIC of erythromycin (Table 2), P. aeruginosa 27853. The note with it: Pseudomonas aeruginosa, 27853, 24 h, read-out: MIC of erythromycin, P. aeruginosa 27853. It counts as cell-based. As for the experimental part: as §6, §7
Data set [10] has as its system E. coli 25922. The data set is described as follows: Augmentation assay: MIC of erythromycin (Table 2), E. coli 25922. It counts as cell-based. The note with it: Escherichia coli, 25922, 24 h, read-out: MIC of erythromycin, E. coli 25922. As to the method:
as §6, §7

Where [11] appears, read: Enterococcus faecalis, 29212, CAMHB, 24 h at 37° C., tested from 1.56 to 200 μg per mL.
Where [12] appears, read: Pseudomonas aeruginosa, 27853, CAMHB, 24 h at 37° C., tested from 1.56 to 200 μg per mL.
The mark [13] stands for this setting: Staphylococcus aureus, 29213, CAMHB, 24 h at 37° C., tested from 1.56 to 200 μg per mL.
[14] abbreviates: Escherichia coli, 25922, CAMHB, 24 h at 37° C., tested from 1.56 to 200 μg per mL.
Setting [15] is: Pseudomonas aeruginosa, 39324, CAMHB, 24 h at 37° C., tested from 1.56 to 200 μg per mL.

As to `C[C@H](CCC(=O)NCCCNCCCCNCCCN)[C@H]1CC[C@H]2[C@@H]3[C@H](O)C[C@@H]4C[C@H](O)CC[C@]4(C)[C@H]3CC[C@]12C` [Compound H, 3α,7α-dihydroxy-12-deoxy-5β-cholan-24-oic acid, N-(4,9-diaza-12-aminododecyl)amide], the MIC in data set [1] (Enterococcus faecalis, 29212, 24 h) is 3.12 µg/mL (≈ 5.41 µM); in [3] (Pseudomonas aeruginosa, 27853, 24 h), 12.5 µg/mL (≈ 21.7 µM); in [4] (Staphylococcus aureus, 29213, 24 h), 6.25 µg/mL (≈ 10.8 µM); in [6] (Escherichia coli, 25922, 24 h), 25 µg/mL (≈ 43.3 µM); in [7] (Pseudomonas aeruginosa, 39324, 24 h) it was 50 to 100 µg/mL (≈ 86.7 to 173 µM). The solubility in water entry in data set [2] is “soluble in water”. The “stability of 5% solution, time before a precipitate of the base separates” value in data set [5] lay within 12 to 24 h.
Regarding `CC[C@H]1OC(=O)[C@H](C)[C@@H](O[C@H]2C[C@@](C)(OC)[C@@H](O)[C@H](C)O2)[C@H](C)[C@@H](O[C@@H]2O[C@H](C)C[C@H](N(C)C)[C@H]2O)[C@](C)(O)C[C@@H](C)C(=O)[C@H](C)[C@@H](O)[C@]1(C)O` [Erythromycin, erythromycin], the MIC in [8] was above 250 µg/mL; in [9], above 250 µg/mL; in [10], 125 µg/mL.
With `NCCCNCCCCNCCCN` [spermine, N-[N-(3-aminopropyl)-4-aminobutyl]-1,3-diaminopropane, reference compound], the MIC in [1] (setting [11]) was above 200 µg/mL; in data set [3] (setting [12]), above 200 µg/mL; in data set [4] (setting [13]), above 200 µg/mL; in data set [6] (setting [14]), above 200 µg/mL; in data set [7] (setting [15]), above 150 µg/mL.
On to `NCCNCCNCCNCCN` [tetraethylenepentamine, reference compound], for which the MIC is above 200 µg/mL in [1] (setting [11]); above 200 µg/mL in data set [3] (setting [12]); above 200 µg/mL in data set [4] (setting [13]); above 200 µg/mL in [6] (setting [14]); above 150 µg/mL in data set [7] (setting [15]).
